According to PubChem BioAssay AID463074 (Broad Institute, 2010):
Active and inactive are the calls of the source.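 Rule for the calls: active = AC50 no more than tenfold above the top dose tested, or full inhibition at every dose with a flat fit (cut at about 19 µM in these data); inconclusive = flat curve fit with inhibition between 30% and 70%, or poor fit; inactive = AC50 more than tenfold above the top dose tested.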

Tested on: HMLE_sh_eGFP viability, CellTiter-Glo luminescence, 72 h
Test: viability loss of HMLE_sh_eGFP cells – cell-based, luminescence, counter-screen for HMLE_sh_ECad selective toxicity project, dose response (AID 463074);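 note: counterscreen control line to flag general toxicity for the HMLE_sh_ECad screen; potency for loss of viability as luminescence drops below DMSO wells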

Row | SMILES | AC50
1 | O=S(=O)(NC1CC(NS(=O)(=O)OCC(Cl)(Cl)Cl)C2CCCCC12)OCC(Cl)(Cl)Cl (configuration not stated) | 1.47 µM
2 | COc1ccc(CNC(=O)c2c(N)n(CCCN3CCOCC3)c3nc4ccccc4nc23)cc1 | 6.67 µM
3 | Cc1ccc(C)c(NC(=S)NC(NC(=O)Cc2cccc3ccccc23)C(Cl)(Cl)Cl)c1 (configuration not stated) | 1.97 µM
4 | CCCCCCc1cc2cc(S(=O)(=O)c3ccc(C)cc3)c(=O)oc2cc1O | 2.43 µM
5 | Cc1ccc(C(=O)Nc2nc(C)c(C(=O)Nc3ccc4c(c3)CCC4)s2)cc1 | 18.8 µM
6 | Cc1cccc(NC(=S)N/N=C/c2ccc([N+](=O)[O-])s2)c1 | 6.78 µM
7 | COc1ccc(-c2[nH]ncc2N=Nc2ccccc2)cc1 | 7.66 µM
8 | CCN(CC)c1ccc(C(=O)OCc2cc(=O)oc3cc(O)ccc23)cc1 | 16.2 µM
9 | Cc1ccc(-c2csc(NCCn3c(-c4ccncc4)nc4cc(C(F)(F)F)ccc43)n2)cc1 | 10.7 µM
10 | COc1ccc(C[C@H]2CN3C(=NC[C@@H]3Cc3ccccc3)N2CCNC(=O)CCC2CCCCC2)cc1 | 7.04 µM
11 | COc1ccc(CCNc2cc(C)nc3c(-c4ccc(Cl)cc4)c(C)nn23)cc1OC | 3.62 µM
12 | O=C(/C=C/c1ccc2c(c1)OCCCO2)c1ccc2ccccc2c1O | 12 µM
13 | CN(CC(=O)Nc1ccccc1Cl)C(=O)c1cccc(-n2cccc2)c1 | > 19.5 µM (inactive)
14 | FC(F)(F)c1ccc(C2[C@H]3CN(Cc4cccnc4)[C@H](c4ccccc4)C34CC2(c2cccnc2)C4)cc1 (some centres not stated) | 3.67 µM
15 | O=C(NCc1cccnc1)/C(=C\c1ccc(-c2cccc(Cl)c2)o1)S(=O)(=O)c1ccccc1 | 3.13 µM
16 | Fc1ccc(NC(=S)Nc2cc(-c3ccccc3)[nH]n2)cc1Cl | 3.46 µM
17 | O=C1C2C3C=CC(C4CC34)C2C(=O)N1/N=C/c1ccc(-c2ccc(F)cc2[N+](=O)[O-])o1 (configuration not stated) | 1.21 µM
18 | CC(=O)Oc1ccc2ccccc2c1C(NC(=O)Cc1ccccc1)c1ccc(Cl)cc1 (configuration not stated) | 6.3 µM
19 | Cc1ccc(COc2ccccc2-c2cc(C(=O)N/N=C/c3cccnc3)[nH]n2)cc1 | 12.6 µM
20 | O=C(CSc1ncnc2nc[nH]c12)Nc1nnc(SCc2ccc(Cl)c(Cl)c2)s1 | 7.45 µM
21 | CC(C)(C)OC(=O)[C@H](Cc1ccccc1)NC(=O)c1[nH]cnc1C(=O)Nc1cccc(Cl)c1 | 3.93 µM
22 | CC(=O)Nc1ccc(-c2csc(NC(=O)Cc3cccc(F)c3)n2)cc1 | 5.64 µM
23 | Cc1nc(Nc2ccc(Cl)cc2Cl)sc1C(=O)Nc1ccccc1 | 11.5 µM
24 | O=C(/C=C/c1ccc2c(c1)OCO2)c1c(O)n(CCC2=CCCCC2)c(=O)[nH]c1=O | 1.63 µM
25 | Cc1cc(NCc2ccccn2)n2nc(C)c(-c3ccc(Cl)cc3)c2n1 | 5.92 µM
26 | CCc1ccc2c(c1)C1(C(=O)N2)N2CCCC2C(C(=O)c2ccc3ccccc3c2)C12C(=O)Nc1ccccc12 (configuration not stated) | 3.69 µM

Row | SMILES | AC50
27 | CN1CCN(CCCN2c3ccccc3Sc3ccc(Cl)cc32)CC1 | 5.25 µM
28 | CCN(CC)c1ccc(/C=N/NC(=O)CCC(=O)NCc2ccccc2)c(O)c1 | 8.23 µM
29 | O=c1cc(CNc2cc(C(F)(F)F)cc(C(F)(F)F)c2)nc2sccn12 | 3.39 µM
30 | C/C(=N\Nc1ccccc1)c1c(O)n(C)c(=O)n(C)c1=O | 4.05 µM
31 | O=C(/C=C/c1c(F)cccc1Cl)c1ccc(O)cc1 | 7.97 µM
32 | CCCc1c(-c2ccc(O)cc2)nn(-c2ccc(O)cc2)c1-c1ccc(O)cc1 | 6.1 µM
33 | CN1CCN(CCCNC(=O)c2ccc(/C=C3\Oc4ccccc4N(Cc4ccc(Cl)cc4)C3=O)cc2)CC1 | 3.31 µM
34 | Cc1cc(C(C)(C)C)c(OC(=O)[C@@H]2OC(c3ccccc3)=C[C@H]2c2ccccc2)c(C(C)(C)C)c1 | 7.77 µM
35 | Cc1ccc(S(=O)(=O)Nc2ccc(-c3csc(-c4ccccc4)n3)cc2)cc1 | 6.85 µM
36 | CCc1c(C)sc(NC(=O)/C=C/c2ccc3c(c2)OCO3)c1C(=O)OC | 0.776 µM
37 | O=C(NC(CSCc1ccccc1)C(=O)N/N=C/c1ccc(O)cc1O)c1ccc([N+](=O)[O-])cc1 (configuration not stated) | 2.14 µM
38 | O=C(c1ccco1)c1nnn(Cc2ccccc2)c1-c1ccccc1 | 6.47 µM
39 | Cn1c(=O)n(Cc2ccc(F)cc2)c(=O)c2c1nc1n2CCCN1C1CCCCC1 | 4.43 µM
40 | COc1ccc(-c2sc3ccccc3c2-c2ccc(OCCN3CCOCC3)cc2)cc1 | 1.51 µM
41 | CC(=O)Oc1ccc(-c2csc(Nc3cccc(C)n3)n2)cc1 | 8.79 µM
42 | CCNC(=O)c1c(NC(=O)c2cc(-c3cc(C)ccc3O)n[nH]2)sc2c1CCCC2 | 4.99 µM
43 | CC(C)c1nc2sc3ccccc3c(=O)c2c(=O)n1Cc1ccccc1 | 6.29 µM
44 | Cc1ccc(/C=C\c2nccc3c2[nH]c2ccccc23)cc1 | 13.2 µM
45 | Cc1cccc(NC(=O)c2nc[nH]c2C(=O)N[C@H](C)c2ccccc2)c1 | 7.13 µM
46 | COc1ccc(-c2csc(NC(=S)NC(=O)/C=C/c3ccco3)n2)cc1Br | 1.98 µM
47 | Cc1cccc(-c2cc3nc(C)cc(N4CC(C)CC(C)C4)n3n2)c1 (configuration not stated) | 6.87 µM
48 | CC(=O)NC(c1cc(Cl)c2cccnc2c1O)C1CC1 (configuration not stated) | 9.04 µM
49 | Clc1ccc2nnnc(-c3ccccc3)c2c1 | 4.26 µM
50 | Nc1nc(=S)c2ncn([C@@H]3O[C@H](CO)[C@@H](O)[C@H]3O)c2[nH]1 | 0.465 µM
51 | Cc1ccc(NC(=S)N/N=C/c2c(Cl)cccc2Cl)c(C)c1 | 0.369 µM
52 | O=C(CCC(=O)N1CCN(c2ccc(O)cc2)CC1)c1ccc(Br)cc1 | 2.64 µM

Row | SMILES | AC50
53 | O=C(/C=C/c1ccncc1)c1ccc(NC(=O)c2ccccc2F)cc1 | 4.38 µM
54 | COc1ccc(Nc2nnc(-c3ccccc3)c3ccccc23)cc1C(=O)N1CCCCC1 | > 19.5 µM (inactive)
55 | Cc1cc([N+](=O)[O-])nn1Cc1ccc(C(=O)N/N=C/c2ccc(O)cc2O)cc1 | 2.25 µM
56 | O=[N+]([O-])c1cccc(-c2csc(Nc3ccccc3)n2)c1 | 3.88 µM
57 | C(=N\Nc1ncnc2sc3c(c12)CCC3)/c1cccs1 | 7.4 µM
58 | COc1cc(NC2CCCCC2O)c2nc(-c3ccc(Cl)cc3)ccc2c1 (configuration not stated) | 5.65 µM
59 | O=C(Nc1cccc(NC(=O)c2ccc([N+](=O)[O-])o2)c1)c1ccco1 | 7.23 µM
60 | O=[N+]([O-])c1ccc(/C=N/n2cnc3ccccc32)s1 | 6.83 µM
61 | Nc1nc(Cl)nc2c1ncn2[C@H]1C[C@H](O)[C@@H](CO)O1 | 0.318 µM
62 | O=C(NC(=O)N1CCN(c2cccc(Cl)c2)CC1)c1ccc(Cl)cc1 | 0.573 µM
63 | CC1=NN(c2nc(-c3ccc(Cl)cc3)cs2)C(=O)C1 | 12.3 µM
64 | COc1ccccc1/C=C1\SC(=S)N(CCC(=O)NCCCn2ccnc2)C1=O | 18.6 µM
65 | COc1cc(OC)cc(-c2sc3ccc(OC)cc3c2-c2ccc3cc[nH]c3c2)c1 | 3.34 µM
66 | Cc1ccc(C)c(NC(=O)/C(C#N)=C/c2cn(CC(=O)NCc3ccco3)c3ccccc23)c1 | > 19.5 µM (inactive)
67 | CCN1C(=O)/C(=C\c2ccncc2)SC1=Nc1ccc(C)c(C)c1 | 6.82 µM
68 | CCCc1ccc(-c2cc(NC(=O)CSc3n[nH]c(N)n3)n(-c3ccccc3)n2)cc1 | 6.1 µM
69 | CC(C)OC(=O)c1c2c(n3ccccc13)C(=O)c1ccccc1C2=O | > 19.5 µM (inactive)
70 | O=C(Nc1ccc(Cl)cc1)c1nc[nH]c1C(=O)NCCN(CCNC(=O)c1[nH]cnc1C(=O)Nc1ccc(Cl)cc1)CCNC(=O)c1[nH]cnc1C(=O)Nc1ccc(Cl)cc1 | 4.36 µM
71 | CC(C)Oc1ccc(CNC(=O)CC(c2ccccc2)c2cc(Cl)ccc2O)cc1 (configuration not stated) | 5.58 µM
72 | CC(=NCc1cccc(Cl)c1)c1nc(-c2ccco2)oc1O | 0.554 µM
73 | COc1ccc(C(=O)c2ccc3oc(-c4ccc(OC)cc4)c(-c4ccc(O)cc4)c3c2)cc1 | 3.87 µM
74 | FC(F)(F)c1cc(CCN2CCNC[C@H]2Cc2cccc3ccccc23)cc(C(F)(F)F)c1 | 3.53 µM
75 | Cc1cc(C)nc(NC(=O)/C=C/c2ccc3c(c2)OCO3)c1 | 2.8 µM
76 | C[C@@H](CSc1ccc(Br)cc1)CN1CC[C@H](C(C)(C)C)CCC1=O | 3.35 µM
77 | COC(=O)c1sc2nc(N3CCCCC3)c3c(c2c1N)CCCC3 | 4.94 µM
78 | O=C(CN1CCN(c2ccc(O)cc2)CC1)Nc1ccc(SC(F)F)cc1 | 6.17 µM

Row | SMILES | AC50
79 | Cc1ccc2nc(N(CCCN(C)C)C(=O)c3cc(-c4cccs4)nc4ccccc34)sc2c1 | 6.4 µM
80 | CCOC(=O)C(C)(C)N(Cc1ccc(Cl)cc1)S(=O)(=O)c1ccc(Cl)c([N+](=O)[O-])c1 | 2.5 µM
81 | CCn1cc([N+](=O)[O-])c(C(=O)Nc2nc(-c3ccc(C)cc3)c(C)s2)n1 | 5.54 µM
82 | Fc1ccc2[nH]c3c(N4CCc5ccccc5C4)ncnc3c2c1 | 7.36 µM
83 | Cc1csc(N/N=C/c2ccccn2)n1 | 11 µM
84 | CC(=O)Nc1ccc(SC[C@H](C)CN2CC[C@H](C(C)(C)C)CCC2=O)cc1 | 4.98 µM
85 | CCc1ccc2nc(SCC(=O)Nc3ccccc3N3CCOCC3)c(C#N)cc2c1 | 2.73 µM
86 | Cc1ccc(-c2cc(NC(=O)CCl)n(-c3ccccc3)n2)cc1 | 7.29 µM
87 | Cc1cc(Nc2nc(Cl)c(Cl)cc2Cl)n(-c2ccccc2)n1 | 11.3 µM
88 | CC1CCCN(c2ccc(C(=O)N3CCC4(CC3)OCCO4)cc2[N+](=O)[O-])C1 (configuration not stated) | 7.96 µM
89 | CCN1CCN(C(=O)c2ccc(CSc3ccc(C)cc3)cc2)CC1 | 0.22 µM
90 | O=C(Nc1nc2ccccc2s1)C1CCN(S(=O)(=O)c2cc([N+](=O)[O-])ccc2Cl)CC1 | 19 µM
91 | CCn1cc(C(=O)N[C@H](C)c2ccccc2)c(=O)c2cc(F)c(N3CCN(C)CC3)cc21 | 3.5 µM
92 | COC(=O)c1ccc(/C=C/c2c(-c3ccc(OC)cc3)oc3ccccc23)cc1 | 5.95 µM
93 | CC(C)(C)C1CCc2c(sc(NC(=O)CSc3ncn[nH]3)c2C#N)C1 (configuration not stated) | 4.79 µM
94 | c1ccc(CN2CCC(Nc3nc(-c4ccccc4)nc4ccccc34)CC2)cc1 | 6.67 µM
95 | CCOC(=O)C1CCN(c2ncnc3c2c(-c2ccccc2)cn3-c2ccccc2)CC1 | 7.43 µM
96 | COc1cccc(-c2sc3ccccc3c2-c2ccc(OCCN3CCCC3)cc2)c1 | 2.81 µM
97 | Cc1cc(C)c(C(=O)/C=C/c2ccc(C(C)C)cc2)c(=O)[nH]1 | 10.1 µM
98 | Cc1[nH]n(-c2ccc([N+](=O)[O-])cc2)c(=O)c1C=NCCN1CCN(C(=O)C(C)C)CC1 | 5.14 µM
99 | CN1CC(c2ccccc2)C2(SC(=S)N(Cc3ccco3)C2=O)C12C(=O)Nc1ccccc12 (configuration not stated) | 7.31 µM
100 | C[C@@H]1CC[C@H]2C(=O)N3[C@@H](CC[C@@H](C)[C@@H]3c3ccc(Br)cc3)C(=O)N2[C@H]1c1ccc(Br)cc1 | 4.41 µM
101 | O=S(=O)([N-]c1nc2ccccc2nc1-[n+]1ccc(Cc2ccccc2)cc1)c1ccc(Br)s1 | 6.16 µM
102 | C[C@@H]1CC[C@]2(C(=O)O)CC[C@]3(C)C(=CCC4[C@]56CC[C@@](O)(OC5)C(C)(C)C6CC[C@]43C)C2[C@H]1C (some centres not stated) | 6.19 µM
